The text below walks through data of paper PMC10822852, “Structural and biochemical insights into the mechanism of the Gabija bacterial immunity system” (Nature Communications, 2024).

Data set [1] concerns the target T1, Gabija complex (GajA and GajB) (Bacillus cereus, UniProt J8H9C1+J8HQ06).
T1 construct: full-length GajA (1-578, Strep-tag II) co-expressed with full-length GajB (1-493, 6xHis) in E. coli BL21(DE3); hetero-octamer 4:4
In words: inhibition of DNA cleavage, agarose gel. The data set is classed as biochemical. Conditions: 1 mM MgCl2, pH 9, 37 °C, 5 min.

Data set [2] deals with the molecule itself. In words: SEC-MALS; Superdex 200 10/300 Increase, samples injected at 1 mg/ml in Buffer B (10 mM Tris-HCl pH 7.5, 300 mM NaCl, 2 mM DTT), 0.5 ml/min; GajA, GajB and the co-purified Gabija complex. For orientation: SEC sorts molecules by how far they enter the pores of the column.

T1 sequence (J8HQ06 1-493, one chain of several): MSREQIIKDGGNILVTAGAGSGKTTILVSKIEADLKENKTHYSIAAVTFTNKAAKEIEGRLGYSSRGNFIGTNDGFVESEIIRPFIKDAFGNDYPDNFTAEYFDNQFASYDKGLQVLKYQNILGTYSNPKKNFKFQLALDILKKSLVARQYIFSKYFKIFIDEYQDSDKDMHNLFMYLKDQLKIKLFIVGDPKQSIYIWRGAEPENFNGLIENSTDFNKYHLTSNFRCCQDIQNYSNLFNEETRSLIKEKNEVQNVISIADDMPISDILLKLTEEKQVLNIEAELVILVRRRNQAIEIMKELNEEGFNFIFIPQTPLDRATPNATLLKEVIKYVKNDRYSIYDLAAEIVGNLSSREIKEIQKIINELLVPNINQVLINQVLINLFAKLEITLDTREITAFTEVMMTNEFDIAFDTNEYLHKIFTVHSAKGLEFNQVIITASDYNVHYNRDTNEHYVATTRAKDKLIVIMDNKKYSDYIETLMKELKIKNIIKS

In the case of `Nc1ncnc2c1ncn2[C@@H]1O[C@H](COP(=O)(O)OP(=O)(O)O)[C@@H](O)[C@H]1O` [ADP], in data set [1] (supercoiled pUC19-15 plasmid), the “inhibition of DNA cleavage, agarose gel” value is “significantly inhibited by different NTP, dNTP, ADP, but not AMP”.
Take `Nc1ncnc2c1ncn2[C@@H]1O[C@H](COP(=O)(O)OP(=O)(O)NP(=O)(O)O)[C@@H](O)[C@H]1O` [AMP-PNP]: the “inhibition of DNA cleavage, agarose gel” value in data set [1] (non-hydrolysable ATP analogue, DNA substrate not given) is given as “cleavage activity of the Gabija complex is also inhibited by AMP-PNP”.
On to `Nc1nc2c(ncn2[C@@H]2O[C@H](COP(=O)(O)OP(=O)(O)OP(=O)(O)O)[C@@H](O)[C@H]2O)c(=O)[nH]1` [GTP], for which the “inhibition of DNA cleavage, agarose gel” value in data set [1] (supercoiled pUC19-15 plasmid) was “significantly inhibited with the increased concentration of ATP and GTP”.

B1: GajA (enzyme, Bacillus cereus VD045, UniProt J8H9C1 1-578, looked up)
chain: MKFSNITIKNFRNFEKVNINLDNKNVIFGMNDIGKTNFLYALRFLLDKEIRKFGFNKSDYHKHDTSKKIEIILTLDLSNYEKDEDTKKLISVVKGARTSANADVFYIALESKYDDKELYGNIILKWGSELDNLIDIPGRGNINALDNVFKVIYINPLVDLDKLFAQNKKYIFEESQGNESDEGILNNIKSLTDQVNQQIGEMTIIKGFQQEITSEYRSLKKEEVSIELKSEMAIKGFFSDIIPYIKKDGDSNYYPTSGDGRRKMLSYSIYNYLAKKKYEDKIVIYLIEEPEISLHRSMQIALSKQLFEQSTYKYFFLSTHSPELLYEMDNTRLIRVHSTEKVVCSSHMYNVEEAYGSVKKKLNKALSSALFAERVLLIEGPSEKILFEKVLDEVEPEYELNGGFLLEVGGTYFNHYVCTLNDLGITHIIKTDNDLKSKKGKKGVYELLGLNRCLNLLGRENLDEITIDIPEDIKGKKKKERLNERKKEIFKQYKNEVGEFLGERIYLSEIDLENDLYSAIGESMKRIFENEDPVHYLQKSKLFNMVELVNNLSTKDCFDVFEHEKFACLKELVGSDRG
notes: OLD family nuclease with ATPase domain (1-351) and Toprim domain (352-578); The methods describe only the co-expression and purification of the complex; Cloned into PET-52b; also called GajA1; GajA2; source: E. coli BL21 (DE3), purified (Strep-tactin Sepharose, Superdex 200); co-expressed with GajB for the Gabija complex
The term stoichiometry N denotes a count of units in the complex or per binding partner. Turning to B1, the “stoichiometry N” value in data set [2] is 4.
